Laboratory results: PMC2800825 (Biochemistry, 2009)
Residue numbers refer to the chain shown, from its start. Several values for one entry are separate records, joined by “and”; a condition that tells them apart may be missing. Equal values may be shown once. Read-outs that look alike come from different tables or passages of the source.

Experiments:
[1] = target: T1, Asn246Ala mutant E. coli DHOD (Escherichia coli, UniProt P0A7E1, N246A); details: protio-DHO vs 5,5,6-^2H3 DHO, pH 8.5, 4 °C
[2] = target: T2, Thr247Ala mutant E. coli DHOD (Escherichia coli, UniProt P0A7E1, T247A); details: protio-DHO vs 5,5,6-^2H3 DHO, pH 8.5, 4 °C
T2 sequence (P0A7E1 whole entry T247A): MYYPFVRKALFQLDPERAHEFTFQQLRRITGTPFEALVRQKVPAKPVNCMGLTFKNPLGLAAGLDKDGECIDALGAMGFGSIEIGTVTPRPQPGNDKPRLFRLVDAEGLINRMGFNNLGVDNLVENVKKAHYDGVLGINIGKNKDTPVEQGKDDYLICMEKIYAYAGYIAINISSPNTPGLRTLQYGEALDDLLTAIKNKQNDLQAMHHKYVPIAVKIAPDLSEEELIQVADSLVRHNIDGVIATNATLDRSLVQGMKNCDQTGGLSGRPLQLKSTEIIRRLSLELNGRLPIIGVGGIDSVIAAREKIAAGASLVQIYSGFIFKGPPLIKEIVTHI

[3] = target: T3, Asn111Ala mutant E. coli DHOD (Escherichia coli, UniProt P0A7E1, N111A); details: protio-DHO vs 5,5,6-^2H3 DHO, pH 8.5, 4 °C
T3 sequence (P0A7E1 whole entry N111A): as the sequence (P0A7E1 whole entry T247A) above, with N111A, A247T counted along it

[4] = target: T4, Asn111Asp mutant E. coli DHOD (Escherichia coli, UniProt P0A7E1, N111D); details: protio-DHO vs 5,5,6-^2H3 DHO, pH 8.5, 4 °C
T4 sequence (P0A7E1 whole entry N111D): as the sequence (P0A7E1 whole entry T247A) above, with N111D, A247T counted along it

[5] = target: T1, Asn246Ala mutant E. coli DHOD; assay: Reductive half-reaction with DHO, anaerobic stopped-flow; format: biochemical
wild-type E. coli DHOD [6] = target: T5, wild-type E. coli DHOD (Escherichia coli, UniProt P0A7E1); details: cited from earlier work
T5 sequence (P0A7E1 1-336): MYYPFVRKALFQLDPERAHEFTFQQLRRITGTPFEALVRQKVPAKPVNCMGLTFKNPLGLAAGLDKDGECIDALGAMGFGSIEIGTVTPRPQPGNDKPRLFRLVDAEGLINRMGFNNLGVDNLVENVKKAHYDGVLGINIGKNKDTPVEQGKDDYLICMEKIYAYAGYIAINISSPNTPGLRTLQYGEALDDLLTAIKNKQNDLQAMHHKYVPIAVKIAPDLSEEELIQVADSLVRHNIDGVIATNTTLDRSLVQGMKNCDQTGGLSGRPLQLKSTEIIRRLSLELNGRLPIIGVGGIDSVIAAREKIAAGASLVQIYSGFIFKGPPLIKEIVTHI

[7] = target: T3, Asn111Ala mutant E. coli DHOD; assay: Reductive half-reaction with DHO, anaerobic stopped-flow; format: biochemical
[8] = target: T2, Thr247Ala mutant E. coli DHOD; assay: as above; format: biochemical
[9] = target: T4, Asn111Asp mutant E. coli DHOD; assay: as above; format: biochemical
[10] = target: T6, Thr247Ser mutant E. coli DHOD (Escherichia coli, UniProt P0A7E1, T247S); assay: as above; format: biochemical
T6 sequence (P0A7E1 1-336 T247S): T5 sequence (P0A7E1 1-336) with T247S

[11] = target: T7, Asn172Ala mutant E. coli DHOD (Escherichia coli, UniProt P0A7E1, N172A); assay: as above; format: biochemical
T7 sequence (P0A7E1 1-336 N172A): T5 sequence (P0A7E1 1-336) with N172A

[12] = target: T8, Asn177Ala mutant E. coli DHOD (Escherichia coli, UniProt P0A7E1, N177A); assay: as above; format: biochemical
T8 sequence (P0A7E1 whole entry N177A): as the sequence (P0A7E1 whole entry T247A) above, with N177A, A247T counted along it

[13] = target: T9, Asn172Ala/Asn246Ala mutant E. coli DHOD (Escherichia coli, UniProt P0A7E1, N172A/N246A); format: biochemical; details: pH 8.5, footnote b printed, text says examined at 25°
T9 sequence (P0A7E1 1-336 N172A/N246A): T5 sequence (P0A7E1 1-336) with N172A, N246A

[14] = target: T9, Asn172Ala/Asn246Ala mutant E. coli DHOD; assay: biochemical
[15] = target: T3, Asn111Ala mutant E. coli DHOD; details: pH 8.5, 25 °C
[16] = target: T1, Asn246Ala mutant E. coli DHOD; details: pH 8.5, 25 °C
[17] = target: T4, Asn111Asp mutant E. coli DHOD; details: pH 8.5, 25 °C
[18] = target: T8, Asn177Ala mutant E. coli DHOD; assay: biochemical
[19] = target: T9, Asn172Ala/Asn246Ala mutant E. coli DHOD; details: pH 8.5, 25 °C
[20] = target: T1, Asn246Ala mutant E. coli DHOD; assay: biochemical; details: Kd of OA, Asn246Ala oxidized enzyme, pH 8.5, 25 °C
[21] = target: T6, Thr247Ser mutant E. coli DHOD; details: pH 8.5, 25 °C
[22] = target: T2, Thr247Ala mutant E. coli DHOD; assay: biochemical
[23] = target: T3, Asn111Ala mutant E. coli DHOD; assay: biochemical
[24] = target: T6, Thr247Ser mutant E. coli DHOD; assay: biochemical
[25] = target: T2, Thr247Ala mutant E. coli DHOD; details: pH 8.5, 25 °C
[26] = target: T7, Asn172Ala mutant E. coli DHOD; details: pH 8.5, 25 °C
[27] = target: T7, Asn172Ala mutant E. coli DHOD; assay: biochemical
[28] = target: T8, Asn177Ala mutant E. coli DHOD; details: pH 8.5, 25 °C
[29] = target: T4, Asn111Asp mutant E. coli DHOD; assay: biochemical
wild-type E. coli DHOD [30] = target: T5, wild-type E. coli DHOD; assay: biochemical

T1 sequence (P0A7E1 whole entry N246A): as the sequence (P0A7E1 whole entry T247A) above, with N246A, A247T counted along it

## [2H]C1([2H])C(=O)NC(=O)NC1([2H])C(=O)O (stereo not drawn) [5,5,6-^2H3 DHO]
[1]
  KIE ^D(kred/Kd): 6.3 ± 0.4
[2]
  KIE ^D(kred/Kd): 6.3 ± 0.4
[3]
  KIE ^D(kred/Kd): 5.9 ± 0.3
[4]
  KIE ^D(kred/Kd): 5.3 ± 0.2

## O=C1C[C@@H](C(=O)O)NC(=O)N1 [DHO, dihydroorotate]
[5]
  Kd: 47000 µM
[5]; Asn246Ala
  fold decrease in reduction rate constant vs wild-type: ~ 570 fold
  fold increase in apparent Kd for DHO vs wild-type: ~ 2,000 fold
[5]; Asn246Ala, pH 8.5, 4 °C
  kred (reduction rate constant): 0.081 ± 0.002 s⁻¹
wild-type E. coli DHOD [6]; pH 8.5, 4 °C
  kred (reduction rate constant): 46 s⁻¹
wild-type E. coli DHOD [6]; read-out: Apparent Kd,DHO, pH 8.5, 4 °C
  Kd: 20 µM
[7]
  Kd: 1040 µM
[7]; Asn111Ala
  fold decrease in kred vs wild-type: ~ 4600 fold
  fold increase in Kd of DHO vs wild-type: ~ 50 fold
[7]; Asn111Ala, pH 8.5, 4 °C
  kred (reduction rate constant): 0.0100 ± 0.0001 s⁻¹
[8]
  Kd: 198 ± 16 µM
[8]; Thr247Ala
  fold decrease in reduction rate constant vs wild-type: ~ 8 fold
  fold increase in Kd of DHO vs wild-type: ~ 10 fold
[8]; Thr247Ala, pH 8.5, 4 °C
  kred (reduction rate constant): 5.52 ± 0.09 s⁻¹
[9]
  fold slower reduction rate constant than wild-type: ~ 450 fold
[9]; pH 8.5, 4 °C, estimated
  kred (reduction rate constant): ~0.1 s⁻¹
[10]
  Kd: 45 ± 5 µM
[10]; Thr247Ser, pH 8.5, 4 °C
  kred (reduction rate constant): 58.8 ± 1.1 s⁻¹
  observed rate constant of the final phase, independent of DHO concentration: ~ 0.02 s^−1
[11]
  Kd: 278 ± 9 µM
[11]; Asn172Ala
  fold increase in Kd of DHO vs wild-type: ~ 14 fold
[11]; Asn172Ala, pH 8.5, 4 °C
  kred (reduction rate constant): 0.00437 ± 0.0002 s⁻¹ and 0.00437 ± 0.00002 s⁻¹
[12]
  Kd: 22 ± 2 µM
[12]; Asn177Ala
  fold decrease in reduction rate constant vs wild-type: ~ 800 fold
[12]; Asn177Ala, pH 8.5, 4 °C
  kred (reduction rate constant): 0.0586 ± 0.0004 s⁻¹
[13]
  kred (reduction rate constant): ~0.002 ^b s^−1

## O=C(O)c1cc(=O)[nH]c(=O)[nH]1 [OA, orotate]
[14]
  Kd: ~50000 µM
[15]
  Kd(mutant)/Kd(Wild-Type) for OA: 14
[16]
  Kd(mutant)/Kd(Wild-Type) for OA: 150 and 152
[17]
  Kd(mutant)/Kd(Wild-Type) for OA: ≫ 22000
[18]
  Kd: 27.5 ± 1.5 µM
[19]
  Kd(mutant)/Kd(Wild-Type) for OA: ~ 14700
[20]
  Kd: 520 µM and 518 µM
[21]
  Kd(mutant)/Kd(Wild-Type) for OA: 1.1
[22]
  Kd: 39.3 ± 1.6 µM
[23]
  Kd: 47.2 ± 0.2 µM
[24]
  Kd: 3.8 ± 0.5 µM
[25]
  Kd(mutant)/Kd(Wild-Type) for OA: 12
[26]
  Kd(mutant)/Kd(Wild-Type) for OA: 65
[27]
  Kd: 220 ± 9 µM
[28]
  Kd(mutant)/Kd(Wild-Type) for OA: 8
[29]
  Kd: > 75000 µM
wild-type E. coli DHOD [30]
  Kd: 3.4 ± 0.8 µM

## NC(CO)(CO)CO.O=C(O)c1cc(=O)[nH]c(=O)[nH]1 [OA-Tris salt]
other
  solubility in water: at least 400 mM
